# Patent US6943147B2, “Cancer treatment using proANP peptides” (University of South Florida, priority 2003, dated 2005)
# Tested on: pancreatic adenocarcinoma cells
# Assay: DNA synthesis by bromodeoxyuridine (BrdU) incorporation into adenocarcinoma cells
# Assay type: cell-based, human
# Conditions: 1 μM, 24 hours
# Text: To investigate whether these peptide hormones were inhibiting DNA synthesis and cell proliferation bromodeoxyuridine (BrdU) incorporation into the adenocarcinoma cells was utilized. BrdU was from BD Bioscience, San Jose, Calif. DNA synthesis and doubling of the genome take place during the synthetic or S phase. BrdU is a thymidine analog incorporated into nuclear DNA during the S phase of the cell cycle. Immunohistochemical methods use BrdU also as a marker of cell proliferation in cancer biology studies. After 24 hours in culture with 1 μM of LANP, vessel dilator, kaliuretic peptide, or ANP, respectively, or with no peptide hormone (i.e., control), BrdU in a final concentration of 10 μM in the cell culture medium was added for 45 minutes—which is time in which the cells are in the logarithmic phase of cell proliferation. For immunohistochemistry, a BrdU in situ detection kit from Becton Dickinson Immunocytochemistry Systems, San Jose, Calif., was utilized.
# After the 45 minutes with BrdU, the adenocarcinoma cells were washed three times in phosphate buffered saline (PBS), five minutes each. This was followed by placing the cells in a −80° C. freezer for five minutes and then 100% methanol was added at 5° C. in order for the cells to become permeable enabling the anti-BrdU antibody to reach the nucleus of the cell. The cells were then washed again in PBS before 100 μl of biotinylated anti-BrdU antibody was added. The coverslips were then incubated in a humidified chamber for one hour. After this incubation, the slides were rinsed in PBS, two minutes each. Then streptavidin-horseradish peroxidase (HRP) was added to each coverslip. The cells were then incubated for 30 minutes. Streptavidin-HRP binds to biotinylated anti-BrdU and HRP is used with addition of diaminobenzidine (DAB) substrate system to visualize BrdU incorporation into the adénocarcinoma cells. After the 30 minute incubation with streptavidin-HRP, the coverslips were rinsed in PBS, two minutes each time, before adding the DAB substrate solution, which contains DAB chromagen and DAB buffer, for five minutes. The coverslips were then rinsed in water, two minutes each time before counterstaining the slides with hematoxylin for 60 seconds followed by a thorough rinsing in water for five minutes. The incorporation of the BrdU stain into the nucleus was then counted using a Nikon Inverted Diaphot-TMD Microscope (Tokyo, Japan). The number of stained nuclei was compared in the four peptide hormone groups to the positive control group. The negative control for these studies was provided by Becton Dickinson Immunocytochemistry Systems.
# BrdU has an advantage over ^3H-thymidine incorporation in that it takes less time and provides high resolution.
# Cyclic GMP and prostaglandin E2 are the two known mediators of all of the previously described biologic effects of these four peptide hormones. All four of these peptide hormones-induced vasodilation of vasculature is mediated by increased cyclic GMP concentrations via enhancing guanylate cyclase activity. […] ANPs effects in the kidney are thought to be mediated by cyclic GMP. Each of these peptide hormones increase cyclic GMP while simultaneously dilating vasculature. 8 bromo-cyclic GMP reproduces these vasodilatory effects. For the present investigation of the mechanism of these peptide hormones' ability to inhibit DNA synthesis in cancer cells, 8-bromoguanosine 3′,5′-cyclic monophosphate (i.e., 8-bromo cyclic GMP, Sigma-Aldrich Co., St. Louis, Mo.) was utilized. 8-bromo cyclic GMP is a cell-permeable analog of cyclic GMP. 8-bromo cyclic GMP effects on DNA synthesis were investigated in dose-response curves with cyclic GMP concentrations ranging from 100 pM to 5 mM.
# Prostaglandin E2, i.e., (5Z, 11α, 13E, 15S)-11, 15-dihydro-9-oxo-prosta-5, 13-dien-I-oic acid was purchased from Sigma-Aldrich, St. Louis, Mo. […]
substance,measurement,value
vessel dilator: a.a. 31-67 of the 126 a.a. ANP prohormone; peptide hormone from Peninsula Laboratories,inhibition of DNA synthesis,91%
